Results as given in patent publication US20230085307A1, “PYRIDAZINONE COMPOUND AND HERBICIDE” (NISSAN CHEMICAL CORPORATION, priority 2019, published 2023).

Key:
southern crabgrass [1] = assay: Test Example 4: herbicidal effect by soil treatment (Table 19, symbol F); assay type: in vivo, southern crabgrass (Digitaria ciliaris); settings: amount of applied herbicide 320 g/ha
Procedure, shortened: (§1)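 Seeds were sown in sterilized diluvial soil and covered with about 1.5 cm of soil. An emulsion formulation diluted with water to a predetermined herbicide amount was sprayed evenly onto the soil surface. Plants grew in a greenhouse at 25° C. to 30° C., and the effect was scored three weeks after application using criteria from an earlier test.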

green foxtail [2] = assay: Test Example 4: herbicidal effect by soil treatment (Table 19, symbol G); assay type: in vivo, green foxtail (Setaria viridis); settings: amount of applied herbicide 320 g/ha
Procedure, shortened: as §1

barnyard grass [3] = assay: Test Example 4: herbicidal effect by soil treatment (Table 19, symbol H); assay type: in vivo, barnyard grass (Echinochloa crus-galli); settings: amount of applied herbicide 320 g/ha
Procedure, shortened: as §1

wild oat [4] = assay: Test Example 4: herbicidal effect by soil treatment (Table 19, symbol I); assay type: in vivo, wild oat (Avena fatua); settings: amount of applied herbicide 320 g/ha
Procedure, shortened: as §1

blackgrass [5] = assay: Test Example 4: herbicidal effect by soil treatment (Table 19, symbol J); assay type: in vivo, blackgrass (Alopecurus myosuroides); settings: amount of applied herbicide 320 g/ha
Procedure, shortened: as §1

Italian ryegrass [6] = assay: Test Example 4: herbicidal effect by soil treatment (Table 19, symbol K); assay type: in vivo, Italian ryegrass (Lolium multiflorum); settings: amount of applied herbicide 320 g/ha
Procedure, shortened: as §1

windgrass [7] = assay: Test Example 4: herbicidal effect by soil treatment (Table 19, symbol L); assay type: in vivo, windgrass (Apera spica-venti); settings: amount of applied herbicide 320 g/ha
Procedure, shortened: as §1

velvetleaf [8] = assay: Test Example 4: herbicidal effect by soil treatment (Table 19, symbol M); assay type: in vivo, velvetleaf (Abutilon theophrasti); settings: amount of applied herbicide 320 g/ha
Procedure, shortened: as §1

redroot pigweed [9] = assay: Test Example 4: herbicidal effect by soil treatment (Table 19, symbol N); assay type: in vivo, redroot pigweed (Amaranthus retroflexus); settings: amount of applied herbicide 320 g/ha
Procedure, shortened: as §1

lambsquarters [10] = assay: Test Example 4: herbicidal effect by soil treatment (Table 19, symbol O); assay type: in vivo, lambsquarters (Chenopodium album); settings: amount of applied herbicide 320 g/ha
Procedure, shortened: as §1

chickweed [11] = assay: Test Example 4: herbicidal effect by soil treatment (Table 19, symbol P); assay type: in vivo, common chickweed (Stellaria media); settings: amount of applied herbicide 320 g/ha
Procedure, shortened: as §1

false cleavers [12] = assay: Test Example 4: herbicidal effect by soil treatment (Table 19, symbol Q); assay type: in vivo, false cleavers (Galium spurium); settings: amount of applied herbicide 320 g/ha
Procedure, shortened: as §1

persian speedwell [13] = assay: Test Example 4: herbicidal effect by soil treatment (Table 19, symbol R); assay type: in vivo, Persian speedwell (Veronica persica); settings: amount of applied herbicide 320 g/ha
Procedure, shortened: as §1

southern crabgrass [14] = assay: Test Example 5: herbicidal effect by foliage application, plastic box (Table 20, symbol F); assay type: in vivo, southern crabgrass (Digitaria ciliaris); settings: foliage application, 320 g/ha, three weeks after application
Procedure, shortened: (§2)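 Plants sown in sterilized diluvial soil and grown 14 days in a greenhouse at 25° C to 30° C, then sprayed on the foliage with the compound's emulsion diluted in water to a predetermined herbicide amount. Injury to weeds and crops scored three weeks after application on a visual rating scale.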

green foxtail [15] = assay: Test Example 5: herbicidal effect by foliage application, plastic box (Table 20, symbol G); assay type: in vivo, green foxtail (Setaria viridis); settings: foliage application, 320 g/ha, three weeks after application
Procedure, shortened: as §2

barnyard grass [16] = assay: Test Example 5: herbicidal effect by foliage application, plastic box (Table 20, symbol H); assay type: in vivo, barnyard grass (Echinochloa crus-galli); settings: foliage application, 320 g/ha, three weeks after application
Procedure, shortened: as §2

wild oat [17] = assay: Test Example 5: herbicidal effect by foliage application, plastic box (Table 20, symbol I); assay type: in vivo, wild oat (Avena fatua); settings: foliage application, 320 g/ha, three weeks after application
Procedure, shortened: as §2

blackgrass [18] = assay: Test Example 5: herbicidal effect by foliage application, plastic box (Table 20, symbol J); assay type: in vivo, blackgrass (Alopecurus myosuroides); settings: foliage application, 320 g/ha, three weeks after application
Procedure, shortened: as §2

Italian ryegrass [19] = assay: Test Example 5: herbicidal effect by foliage application, plastic box (Table 20, symbol K); assay type: in vivo, Italian ryegrass (Lolium multiflorum); settings: foliage application, 320 g/ha, three weeks after application
Procedure, shortened: as §2

windgrass [20] = assay: Test Example 5: herbicidal effect by foliage application, plastic box (Table 20, symbol L); assay type: in vivo, windgrass (Apera spica-venti); settings: foliage application, 320 g/ha, three weeks after application
Procedure, shortened: as §2

velvetleaf [21] = assay: Test Example 5: herbicidal effect by foliage application, plastic box (Table 20, symbol M); assay type: in vivo, velvetleaf (Abutilon theophrasti); settings: foliage application, 320 g/ha, three weeks after application
Procedure, shortened: as §2

redroot pigweed [22] = assay: Test Example 5: herbicidal effect by foliage application, plastic box (Table 20, symbol N); assay type: in vivo, redroot pigweed (Amaranthus retroflexus); settings: foliage application, 320 g/ha, three weeks after application
Procedure, shortened: as §2

lambsquarters [23] = assay: Test Example 5: herbicidal effect by foliage application, plastic box (Table 20, symbol O); assay type: in vivo, lambsquarters (Chenopodium album); settings: foliage application, 320 g/ha, three weeks after application
Procedure, shortened: as §2

chickweed [24] = assay: Test Example 5: herbicidal effect by foliage application, plastic box (Table 20, symbol P); assay type: in vivo, common chickweed (Stellaria media); settings: foliage application, 320 g/ha, three weeks after application
Procedure, shortened: as §2

false cleavers [25] = assay: Test Example 5: herbicidal effect by foliage application, plastic box (Table 20, symbol Q); assay type: in vivo, false cleavers (Galium spurium); settings: foliage application, 320 g/ha, three weeks after application
Procedure, shortened: as §2

persian speedwell [26] = assay: Test Example 5: herbicidal effect by foliage application, plastic box (Table 20, symbol R); assay type: in vivo, Persian speedwell (Veronica persica); settings: foliage application, 320 g/ha, three weeks after application
Procedure, shortened: as §2

CCCC(=O)Oc1c(C)nn(C)c(=O)c1-c1c(-c2ccsc2)sc2ccccc12 [1-084]
herbicidal effect rating, F: southern crabgrass (southern crabgrass [1]): 1 (Herbicidal rate of 5% or more and less than 20%)
herbicidal effect rating, G: green foxtail (green foxtail [2]): 2 (Herbicidal rate of 20% or more and less than 40%)
herbicidal effect rating, H: barnyard grass (barnyard grass [3]): 1 (Herbicidal rate of 5% or more and less than 20%)
herbicidal effect rating, I: wild oat (wild oat [4]): 0 (Herbicidal rate of 5% or less (almost no effect))
herbicidal effect rating, J: blackgrass (blackgrass [5]): 0 (Herbicidal rate of 5% or less (almost no effect))
herbicidal effect rating, K: Italian ryegrass (Italian ryegrass [6]): 0 (Herbicidal rate of 5% or less (almost no effect))
herbicidal effect rating, L: windgrass (windgrass [7]): 0 (Herbicidal rate of 5% or less (almost no effect))
herbicidal effect rating, M: velvetleaf (velvetleaf [8]): 0 (Herbicidal rate of 5% or less (almost no effect))
herbicidal effect rating, N: redroot pigweed (redroot pigweed [9]): 0 (Herbicidal rate of 5% or less (almost no effect))
herbicidal effect rating, O: lambsquarters (lambsquarters [10]): 0 (Herbicidal rate of 5% or less (almost no effect))
herbicidal effect rating, P: chickweed (chickweed [11]): 1 (Herbicidal rate of 5% or more and less than 20%)
herbicidal effect rating, Q: false cleavers (false cleavers [12]): 0 (Herbicidal rate of 5% or less (almost no effect))
herbicidal effect rating, R: persian speedwell (persian speedwell [13]): 0 (Herbicidal rate of 5% or less (almost no effect))
herbicidal effect grade, F: southern crabgrass (southern crabgrass [14]): 0 (Herbicidal rate of 5% or less (almost no effect))
herbicidal effect grade, G: green foxtail (green foxtail [15]): 0 (Herbicidal rate of 5% or less (almost no effect))
herbicidal effect grade, H: barnyard grass (barnyard grass [16]): 0 (Herbicidal rate of 5% or less (almost no effect))
herbicidal effect grade, I: wild oat (wild oat [17]): 0 (Herbicidal rate of 5% or less (almost no effect))
herbicidal effect grade, J: blackgrass (blackgrass [18]): 0 (Herbicidal rate of 5% or less (almost no effect))
herbicidal effect grade, K: Italian ryegrass (Italian ryegrass [19]): 1 (Herbicidal rate of 5% or more and less than 20%)
herbicidal effect grade, L: windgrass (windgrass [20]): 0 (Herbicidal rate of 5% or less (almost no effect))
herbicidal effect grade, M: velvetleaf (velvetleaf [21]): 0 (Herbicidal rate of 5% or less (almost no effect))
herbicidal effect grade, N: redroot pigweed (redroot pigweed [22]): 0 (Herbicidal rate of 5% or less (almost no effect))
herbicidal effect grade, O: lambsquarters (lambsquarters [23]): 0 (Herbicidal rate of 5% or less (almost no effect))
herbicidal effect grade, P: chickweed (chickweed [24]): 5 (Herbicidal rate of 90% or more (almost completely withered))
herbicidal effect grade, Q: false cleavers (false cleavers [25]): 0 (Herbicidal rate of 5% or less (almost no effect))
herbicidal effect grade, R: persian speedwell (persian speedwell [26]): 0 (Herbicidal rate of 5% or less (almost no effect))
